Test results as given in article PMC11462627, “SAL0114: a novel deuterated dextromethorphan-bupropion combination with improved antidepressant efficacy and safety profile” (Frontiers in Pharmacology, 2024).

Columns and labels:
[1] = test system: ICR mice; experiment: Forced swim test; assay type: in vivo; settings: FST, oral, 1 h after administration, deDM 10 and 18 mg/kg, BUP 50 mg/kg, deDM + BUP 10 + 50 and 18 + 50 mg/kg
Method: The mouse forced swim test was performed in a way similar to that published previously by Nguyen et al. ([Nguyen et al., 2017]) with some modifications. […] All compounds were administered orally via gavage at a volume of 10 mL/kg body weight, with the vehicle group receiving an equivalent volume of saline. 1 h after administration, mice underwent the forced swim test (FST), a widely used behavioral assay for evaluating antidepressant-like effects. Each mouse was individually placed in a transparent cylindrical tank filled with water (depth: 18 cm, temperature: 25°C ± 1°C) for a 6-min test session. The initial 2 min served as the acclimatization period and was not scored. Floating time during the subsequent 4 min was measured using ANY-Maze Version 4.63 video tracking software (Stoelting Co., Illinois, United States). Floating was defined as the minimum movement required to keep the animal’s head above water. Floating time (%) = floatting time(s)/240 s. The ANY-Maze software parameters were set as follows: acclimatization period = 120 s, test duration = 240 s, minimum immobility time = 2 s, and immobility sensitivity = 75%. To maintain consistent conditions, water was changed between the animals. […]

[2] = test system: C57BL/6J mice; experiment: Ammonia-induced cough mouse model; assay type: in vivo; settings: oral; for cough inhibition rate: 0.5 h post-administration
Method: Antitussive effects were investigated using a classical mouse cough model induced by ammonia liquor, with some modifications ([Jiang et al., 2014]; [Adejayan et al., 2019]). An ammonia-induced cough model in male C57BL/6J mice was used to evaluate the antitussive effects using a two-step approach. The initial screening phase aimed to identify the mice with consistent and pronounced cough responses. Individual mice were exposed to 0.2 mL of 13% ammonium hydroxide solution in 500 mL glass vials. A trained observer measured the latency period and recorded the number of coughs over a 3-min period post-exposure. […] Following a 24-h recovery period, 70 eligible mice were randomly allocated to seven treatment groups (n = 10 per group) for the compound evaluation phase. […] All compounds were administered orally at a volume of 10 mL/kg. At 0.5 h post-administration, each mouse was re-exposed to 0.2 mL of 13% ammonia in a 500 mL glass jar for 1 min. Subsequently, the trained observer recorded the number of coughs over a 3-min period following removal from the jar. […] All experimental procedures were conducted in strict compliance with guidelines approved by the Institutional Animal Care and Use Committee of Shenzhen Salubris Pharmaceuticals Co., Ltd., ensuring adherence to ethical standards in animal research. A P value of less than 0.05 was considered statistically significant for comparisons between groups.

[3] = Metabolic stability in liver microsomes; assay type: in vitro ADME, human
Method: All incubations were performed in duplicates. Verapamil was used as the positive control. After pre-warming the mixture for 5 min, reactions were initiated by the addition of NADPH (1 mM). Samples (30 μL) were taken at 0, 20, and 60 min, and the reaction was immediately terminated by adding 150 μL acetonitrile containing an analytical internal standard (IS). Samples were centrifuged at 4,000 rpm for 5 min in a centrifuge (5810R, Eppendorf, Germany), and the supernatant was analyzed by LC-MS/MS (Thermo Scientific TSQ Quantum Ultra, United States).
The in vivo clearance values (CLint = CLint, in vitro × (mg protein/g liver weight) × (g liver weight/kg body weight)) of humans were predicted by CLint, in vitro values using physiologically-based scaling factors, hepatic microsomal protein concentrations (48.8 mg protein/g liver), and liver weights (25.7 g/kg body weight). The in vivo hepatic clearance (CLH= (Q × CLint)/(Q + CLint)) was then calculated by using CLint and hepatic blood flow, Q (20.7 mL·min^−1·kg^−1 in humans).

[4] = target: T1, nAchR α3β4 (Homo sapiens, UniProt P30926+P32297); experiment: nAchR α3β4 radioligand binding (125I-epibatidine, recombinant CHO-K1 cells); settings: 125I-epibatidine competition, human recombinant CHO-K1 cells, mean, n = 2; read-out: Ki, α3β4 nicotinic acetylcholine receptors
T1 construct: host or cells: CHO-K1
T1 sequence (P32297 32-505): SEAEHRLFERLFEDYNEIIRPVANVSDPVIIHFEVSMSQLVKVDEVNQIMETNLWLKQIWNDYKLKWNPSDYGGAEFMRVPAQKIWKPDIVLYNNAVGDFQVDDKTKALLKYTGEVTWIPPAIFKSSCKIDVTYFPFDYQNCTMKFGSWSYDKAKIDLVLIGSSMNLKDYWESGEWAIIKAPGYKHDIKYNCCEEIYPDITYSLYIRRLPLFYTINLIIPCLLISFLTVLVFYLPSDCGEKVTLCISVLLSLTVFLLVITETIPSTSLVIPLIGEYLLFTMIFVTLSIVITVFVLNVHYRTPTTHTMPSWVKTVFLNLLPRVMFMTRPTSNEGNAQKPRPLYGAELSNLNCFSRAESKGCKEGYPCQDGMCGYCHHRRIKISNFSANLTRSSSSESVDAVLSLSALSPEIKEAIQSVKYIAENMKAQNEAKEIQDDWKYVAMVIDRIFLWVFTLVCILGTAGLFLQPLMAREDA
T1 sequence (P30926 22-498): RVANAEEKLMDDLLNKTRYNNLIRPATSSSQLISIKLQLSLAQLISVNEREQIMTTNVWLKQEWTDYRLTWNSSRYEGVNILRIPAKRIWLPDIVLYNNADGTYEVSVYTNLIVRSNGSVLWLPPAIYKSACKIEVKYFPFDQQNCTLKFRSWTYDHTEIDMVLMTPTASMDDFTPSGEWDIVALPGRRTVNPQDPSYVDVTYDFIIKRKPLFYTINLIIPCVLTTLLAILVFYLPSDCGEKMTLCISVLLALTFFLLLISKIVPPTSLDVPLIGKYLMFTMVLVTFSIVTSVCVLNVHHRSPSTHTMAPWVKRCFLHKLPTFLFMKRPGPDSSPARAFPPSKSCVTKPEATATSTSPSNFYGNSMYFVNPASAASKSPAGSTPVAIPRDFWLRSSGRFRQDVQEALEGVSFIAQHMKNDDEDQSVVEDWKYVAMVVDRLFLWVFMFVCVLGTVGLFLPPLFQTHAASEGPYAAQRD
Method: The experiments were carried out in the Eurofins Discovery laboratory, and the methods were referenced from previous studies with modifications ([Michelmore et al., 2002]; [Zaveri et al., 2010]). The competitive binding of the samples and ^125I-epibatidine to the nAchR α3β4 in human recombinant CHO-K1 cells was assessed using a radioligand binding method. The ability of the compound to competitively bind to nAchR α3β4 (Ki) was determined by detecting the signal value of the radioligand bound to the receptor.

[5] = Pharmacokinetics in male SD rat after oral administration; assay type: in vivo; settings: DM or deDM, male SD rat, oral, 50 mg/kg, mean, n=3
From the text: Results expressed as mean, n=3 per group

[6] = test system: ICR mice; experiment: Tail suspension test; assay type: in vivo; settings: TST, oral, 1 h after administration, deDM 10 and 18 mg/kg, BUP 50 mg/kg, deDM + BUP 10 + 50 and 18 + 50 mg/kg
Method: The TST was adapted from the behavioral despair test described by Nguyen et al. ([Nguyen et al., 2017]), with some modifications. […] All compounds were administered orally via gavage at a volume of 10 mL/kg body weight, with the vehicle group receiving an equivalent volume of saline. One hour after administration, mice underwent a tail suspension test (TST). For the TST, each mouse was suspended by its tail, with adhesive tape attached 2 cm from the tail tip and secured to a metal rod. Care was taken to ensure a minimum distance of 15 cm between the suspended animal and the surrounding objects. The test was performed using the ANY-maze version 4.63 video tracking program (Stoelting Co., Wood Dale, IL, United States) for a total duration of 6 min. The initial 2 min served as an acclimatization period and were not scored. The immobility time during the subsequent 4 min was measured using the same software. Immobility was defined as mouse hanging passively and motionless. The ANY-Maze software parameters were set as follows: acclimatization period = 120 s, test duration = 240 s, minimum immobility time = 2 s, and immobility sensitivity = 75%. […]

deuterated dextromethorphan [deDM]
floating time compared to the vehicle group [1]: did not significantly reduce the floating time | cough inhibition compared with the vehicle group ([2]; deDM 5 and 10 mg/kg, BUP 40 mg/kg, deDM + BUP 5 + 40 and 10 + 40 mg/kg): neither deDM nor BUP significantly inhibited cough | cough inhibition rate ([2]; high dose 10 mg/kg): 9.1% | cough inhibition rate ([2]; low dose 5 mg/kg): 8.3% | T1/2 ([3]; 1 μM, 0.5 mg/mL human liver microsomes, NADPH 1 mM, 37°C, mean, n = 2): 135.9 min | CLint, in vitro ([3]; human liver microsomes, calculated from t1/2, mean, n = 2): 12.8 mL/min/kg | CLH ([3]; in vivo hepatic clearance predicted from CLint and hepatic blood flow 20.7 mL/min/kg, human): 7.9 mL/min/kg | Ki [4]: 15.8 µM | AUC0-last [5]: 374 ng·h/mL | Cmax [5]: 84 ng/mL | immobilization time compared to the vehicle group [6]: did not significantly reduce the immobilization time
